{"source": "patent EP4745118A1", "about": "“HYDROXAMIC ACID COMPOUND OR PHARMACEUTICALLY ACCEPTABLE SALT THEREOF, AND USE THEREOF AND PREPARATION METHOD THEREFOR” (priority 2023, dated 2025)", "key": {"Enterobacter cloacae": {"test_system": "Enterobacter cloacae", "assay": "In vitro antibacterial activity, agar dilution method (MIC)", "type": "cell-based", "experimental": "According to the relevant operating procedures of the Clinical Laboratory Standards Institute (CLSI) in the United States, an antimicrobial susceptibility testing was conducted using the agar dilution method. […] The agar was allowed to solidify and set aside for later use.\n(§1) The test bacteria were propagated in broth and adjusted to a turbidity of 0.5 McFarland (approximately 1-2 × 10^8 CFU/mL) using a turbidimeter before inoculation. The 0.5 McFarland bacterial solution was then diluted 10-fold in broth (approximately 1-2 × 10^7 CFU/mL). A multipoint inoculator was used to inoculate the above bacterial solution onto a series of plates containing different concentrations of drugs (with an inoculation amount of approximately 10^4 CFU per inoculation site). After incubation at a constant temperature of 35°C for 18 hours, results were observed. The minimum concentration of drugs contained in sterile growth plates was determined as the Minimal Inhibitory Concentration (MIC)."}, "Klebsiella pneumoniae": {"test_system": "Klebsiella pneumoniae", "assay": "In vitro antibacterial activity, agar dilution method (MIC)", "type": "cell-based", "conditions": "Klebsiella pneumoniae", "experimental": "(§2) According to the relevant operating procedures of the Clinical Laboratory Standards Institute (CLSI) in the United States, an antimicrobial susceptibility testing was conducted using the agar dilution method. […]. The agar was allowed to solidify and set aside for later use.\nas §1"}, "Citrobacter freundii": {"test_system": "Citrobacter freundii", "assay": "In vitro antibacterial activity, agar dilution method (MIC)", "type": "cell-based", "experimental": "as §2, §1"}, "Pseudomonas aeruginosa": {"test_system": "Pseudomonas aeruginosa", "assay": "In vitro antibacterial activity, agar dilution method (MIC)", "type": "cell-based", "experimental": "as §2, §1"}, "Serratia marcescens": {"test_system": "Serratia marcescens", "assay": "In vitro antibacterial activity, agar dilution method (MIC)", "type": "cell-based", "experimental": "as §2, §1"}, "Pantoea agglomerans": {"test_system": "Pantoea agglomerans", "assay": "In vitro antibacterial activity, agar dilution method (MIC)", "type": "cell-based", "experimental": "as §2, §1"}, "Proteus vulgaris": {"test_system": "Proteus vulgaris", "assay": "In vitro antibacterial activity, agar dilution method (MIC)", "type": "cell-based", "experimental": "as §2, §1"}, "Proteus mirabilis": {"test_system": "Proteus mirabilis", "assay": "In vitro antibacterial activity, agar dilution method (MIC)", "type": "cell-based", "experimental": "as §2, §1"}, "Enterobacter aerogenes": {"test_system": "Enterobacter aerogenes", "assay": "In vitro antibacterial activity, agar dilution method (MIC)", "type": "cell-based", "conditions": "Klebsiella aerogenes", "experimental": "as §2, §1"}, "Escherichia coli": {"test_system": "Escherichia coli", "assay": "In vitro antibacterial activity, agar dilution method (MIC)", "type": "cell-based", "conditions": "Escherichia coli", "experimental": "as §2, §1"}, "Shigella flexneri": {"test_system": "Shigella flexneri", "assay": "In vitro antibacterial activity, agar dilution method (MIC)", "type": "cell-based", "conditions": "ATCC12022, Shigella flexneri ATCC 12022, 35°C, 18 hours, read-out: MIC", "experimental": "According to the relevant operating procedures of the Clinical Laboratory Standards Institute (CLSI) in the United States, an antimicrobial susceptibility testing was conducted using the agar dilution method. A 1920 µg/mL stock solution was serially diluted twofold with sterile water to obtain dilutions of 960, 480, 240, 120, 60, 30, 15, 7.5, 3.75, 1.88, 0.94, 0.47 µg/mL, and 1 mL of the dilution was taken respectively from the dilutions with different concentrations and added to a Petri dish, to which 14 mL of melted MH agar medium was added and mixed thoroughly, and the final concentration of the drug in the petri dish is 128, 64, 32, 16, 8, 4, 2, 1, 0.5, 0.25, 0.12, 0.06, and 0.03 µ g/mL, respectively. The agar was allowed to solidify and set aside for later use.\nas §1"}, "ICR strain mice": {"test_system": "ICR strain mice", "assay": "Acute toxicity in mice, single tail vein injection", "type": "in vivo", "conditions": "one week", "experimental": "Healthy ICR strain mice weighing 20-21 g were taken for the experiment, randomly divided into groups of 3 mice per group, regardless of gender. Each compound was administered via a single tail vein injection at a volume of 20 mL/kg. Animal responses were observed immediately postadministration and monitored for one week. The number of animal deaths was recorded and mortality rates calculated."}, "Vero cells": {"test_system": "Vero cells", "assay": "Vero cytotoxicity (CCK-8)", "type": "cell-based", "conditions": "Chlorocebus sabaeus", "experimental": "All liquid was transferred to a 15 mL centrifuge tube and centrifuged at 800 rpm for 5 min. […] A cell counter was used to measure cell density. Cells were inoculated at 100 µL and a density of 3 × 10^5/mL into a 96-well plate, with 6 replicates per group, and incubated at 37°C for 4 hours to allow cells to adhere to the wall. The compound was twofold continuously diluted with PBS, and 10 µL of the compound with the corresponding concentration was added to the 96-well plate, and shaken and mixed well on a shaker, and then incubated at 37°C for 24 hours. 10 µL of CCK-8 reagent was added to the 96-well plate, mixed thoroughly on a shaker, and incubated at 37°C for 2 hours. A microplate reader was used to measure the absorbance at 450 nm wavelength, and the inhibition rate of the compound on Vero cells was calculated. Table 5 Vero cytotoxicity of 4 optical isomers and control drug"}}, "note": "Where two headings read alike, the source gives them in different places.", "data": [{"smiles": "COC[C@@H]1C[C@@H]1C#CC#Cc1ccc(C(=O)N[C@H](C(=O)NO)C(C)(C)N)cc1", "note": "[Id, N-(S)-3-amino-1-hydroxyamino-3-methyl-1-oxobutan-2-yl-4-[[(1S,2R)-2-(methoxymethylene)cyclopropyl]but-1,3-diynyl]benzamide]", "values": [{"measurement": "MIC", "setting": "Enterobacter cloacae; Enterobacter cloacae CDC1000654 (NDM-1-producing), agar dilution, 35°C, 18 hours, read-out: MIC", "result": 1, "unit": "µg/mL"}, {"measurement": "MIC", "setting": "Klebsiella pneumoniae; 18 h, Klebsiella pneumoniae 09-20 (mcr-1), agar dilution, 35°C, 18 hours, read-out: MIC", "result": 0.5, "unit": "µg/mL"}, {"measurement": "MIC", "setting": "Klebsiella pneumoniae; 18 h, Klebsiella pneumoniae 17-R27 (CRE), agar dilution, 35°C, 18 hours, read-out: MIC", "result": 0.5, "unit": "µg/mL"}, {"measurement": "MIC", "setting": "Klebsiella pneumoniae; 18 h, Klebsiella pneumoniae 18-8 (ESBLs-producing), agar dilution, 35°C, 18 hours, read-out: MIC", "result": 0.5, "unit": "µg/mL"}, {"measurement": "MIC", "setting": "Klebsiella pneumoniae; ATCC700603, 18 h, Klebsiella pneumoniae ATCC 700603 (ESBLs-producing), agar dilution, 35°C, 18 hours, read-out: MIC", "result": 2, "unit": "µg/mL"}, {"measurement": "MIC", "setting": "Klebsiella pneumoniae; ATCCBAA2146, 18 h, Klebsiella pneumoniae ATCC BAA-2146 (CRE, NDM-1-producing), agar dilution, 35°C, 18 hours, read-out: MIC", "result": 2, "unit": "µg/mL"}, {"measurement": "MIC", "setting": "Citrobacter freundii; ATCC43864, Citrobacter freundii ATCC 43864, agar dilution, 35°C, 18 hours, read-out: MIC", "result": 0.25, "unit": "µg/mL"}, {"measurement": "MIC", "setting": "Pseudomonas aeruginosa; Pseudomonas aeruginosa PAO1, agar dilution, 35°C, 18 hours, read-out: MIC", "result": 1, "unit": "µg/mL"}, {"measurement": "MIC", "setting": "Serratia marcescens; ATCC21074, Serratia marcescens ATCC 21074, agar dilution, 35°C, 18 hours, read-out: MIC", "result": 0.25, "unit": "µg/mL"}, {"measurement": "MIC", "setting": "Pantoea agglomerans; ATCC27993, Pantoea agglomerans ATCC 27993, agar dilution, 35°C, 18 hours, read-out: MIC", "result": 1, "unit": "µg/mL"}, {"measurement": "MIC", "setting": "Proteus vulgaris; ATCC29905, Proteus vulgaris ATCC 29905, agar dilution, 35°C, 18 hours, read-out: MIC", "result": 0.12, "unit": "µg/mL"}, {"measurement": "MIC", "setting": "Proteus mirabilis; ATCC49565, Proteus mirabilis ATCC 49565, agar dilution, 35°C, 18 hours, read-out: MIC", "result": 1, "unit": "µg/mL"}, {"measurement": "MIC", "setting": "Enterobacter aerogenes; ATCC13048, Enterobacter aerogenes ATCC 13048, agar dilution, 35°C, 18 hours, read-out: MIC", "result": 0.5, "unit": "µg/mL"}, {"measurement": "MIC", "setting": "Escherichia coli; 18 h, Escherichia coli 13-43 (mcr-1), agar dilution, 35°C, 18 hours, read-out: MIC", "result": 0.5, "unit": "µg/mL"}, {"measurement": "MIC", "setting": "Escherichia coli; 18 h, Escherichia coli 17-R28 (CRE, NDM-1-producing), agar dilution, 35°C, 18 hours, read-out: MIC", "result": 0.25, "unit": "µg/mL"}, {"measurement": "MIC", "setting": "Escherichia coli; ATCC2469, 18 h, Escherichia coli ATCC 2469 (CRE, NDM-1-producing), agar dilution, 35°C, 18 hours, read-out: MIC", "result": 0.25, "unit": "µg/mL"}, {"measurement": "MIC", "setting": "Escherichia coli; ATCC35218, 18 h, Escherichia coli ATCC 35218 (ESBLs-producing), agar dilution, 35°C, 18 hours, read-out: MIC", "result": 0.25, "unit": "µg/mL"}, {"measurement": "MIC", "setting": "Shigella flexneri", "result": 0.06, "unit": "µg/mL"}, {"measurement": "Mortality rate", "setting": "ICR strain mice; dose 100 mg/kg", "result": 0, "unit": "%"}, {"measurement": "Number of deaths", "setting": "ICR strain mice; dose 100 mg/kg", "result": 0, "unit": "individuals"}, {"measurement": "Mortality rate", "setting": "ICR strain mice; dose 150 mg/kg", "result": 67, "unit": "%"}, {"measurement": "Number of deaths", "setting": "ICR strain mice; dose 150 mg/kg", "result": 2, "unit": "individuals"}, {"measurement": "Mortality rate", "setting": "ICR strain mice; dose 200 mg/kg", "result": 100, "unit": "%"}, {"measurement": "Number of deaths", "setting": "ICR strain mice; dose 200 mg/kg", "result": 3, "unit": "individuals"}, {"measurement": "IC50", "setting": "Vero cells; Vero cells, 24 hours incubation, CCK-8, read-out: IC50", "result": "> 128", "unit": "µM"}]}, {"smiles": "COC[C@H]1C[C@@H]1C#CC#Cc1ccc(C(=O)N[C@H](C(=O)NO)C(C)(C)N)cc1", "note": "[Ib, N-(S)-3-amino-1-hydroxyamino-3-methyl-1-oxobutan-2-yl-4-[[(1S,2S)-2-(methoxymethylene)cyclopropyl]but-1,3-diynyl]benzamide]", "values": [{"measurement": "MIC", "setting": "Enterobacter cloacae; Enterobacter cloacae, 18 h", "result": 2, "unit": "µg/mL"}, {"measurement": "MIC", "setting": "Klebsiella pneumoniae; 18 h", "result": 0.5, "unit": "µg/mL"}, {"measurement": "MIC", "setting": "Klebsiella pneumoniae; 18 h, Klebsiella pneumoniae 09-20 (mcr-1), agar dilution, 35°C", "result": 0.5, "unit": "µg/mL"}, {"measurement": "MIC", "setting": "Klebsiella pneumoniae; 18 h, Klebsiella pneumoniae 17-R27 (CRE), agar dilution, 35°C", "result": 0.25, "unit": "µg/mL"}, {"measurement": "MIC", "setting": "Klebsiella pneumoniae; ATCC700603, 18 h", "result": 1, "unit": "µg/mL"}, {"measurement": "MIC", "setting": "Klebsiella pneumoniae; ATCCBAA2146, 18 h, Klebsiella pneumoniae ATCC BAA-2146 (CRE, NDM-1-producing), agar dilution, 35°C, 18 hours", "result": 2, "unit": "µg/mL"}, {"measurement": "MIC", "setting": "Citrobacter freundii; Citrobacter freundii, ATCC43864, 18 h", "result": 0.25, "unit": "µg/mL"}, {"measurement": "MIC", "setting": "Pseudomonas aeruginosa; Pseudomonas aeruginosa, PAO1, 18 h", "result": 1, "unit": "µg/mL"}, {"measurement": "MIC", "setting": "Serratia marcescens; Serratia marcescens, ATCC21074, 18 h", "result": 0.25, "unit": "µg/mL"}, {"measurement": "MIC", "setting": "Pantoea agglomerans; Pantoea agglomerans, ATCC27993, 18 h", "result": 1, "unit": "µg/mL"}, {"measurement": "MIC", "setting": "Proteus vulgaris; Proteus vulgaris, ATCC29905, 18 h", "result": 0.12, "unit": "µg/mL"}, {"measurement": "MIC", "setting": "Proteus mirabilis; Proteus mirabilis, ATCC49565, 18 h", "result": 1, "unit": "µg/mL"}, {"measurement": "MIC", "setting": "Enterobacter aerogenes; ATCC13048, 18 h", "result": 0.5, "unit": "µg/mL"}, {"measurement": "MIC", "setting": "Escherichia coli; 18 h, Escherichia coli 13-43 (mcr-1), agar dilution, 35°C", "result": 0.5, "unit": "µg/mL"}, {"measurement": "MIC", "setting": "Escherichia coli; 18 h, Escherichia coli 17-R28 (CRE, NDM-1-producing), agar dilution, 35°C", "result": 0.25, "unit": "µg/mL"}, {"measurement": "MIC", "setting": "Escherichia coli; ATCC2469, 18 h, Escherichia coli ATCC 2469 (CRE, NDM-1-producing), agar dilution, 35°C, 18 hours", "result": 0.25, "unit": "µg/mL"}, {"measurement": "MIC", "setting": "Escherichia coli; ATCC35218, 18 h", "result": 0.25, "unit": "µg/mL"}, {"measurement": "MIC", "setting": "Shigella flexneri", "result": 0.12, "unit": "µg/mL"}, {"measurement": "Mortality rate", "setting": "ICR strain mice; dose 150 mg/kg", "result": 0, "unit": "%"}, {"measurement": "Number of deaths", "setting": "ICR strain mice; dose 150 mg/kg", "result": 0, "unit": "individuals"}, {"measurement": "Mortality rate", "setting": "ICR strain mice; dose 200 mg/kg", "result": 100, "unit": "%"}, {"measurement": "Number of deaths", "setting": "ICR strain mice; dose 200 mg/kg", "result": 3, "unit": "individuals"}, {"measurement": "IC50", "setting": "Vero cells; Vero, 24 h", "result": "> 128", "unit": "µM"}]}]}
